Tests used:
CDK4/Cyclin D1 = CDK4/Cyclin D1 (Homo sapiens (Human), UniProt P11802); assay: CDK4 filtration kinase assay; assay type: biochemical; conditions: CDK4/Cyclin D1, Rb fragment substrate, [33P]-ATP filtration assay
Protocol: The CDK4 and CDK1 inhibitory activity of the CDK4/6-FLT3 inhibitors was determined with a filtration kinase assay. The compounds, kinase and substrate diluted in the kinase buffer (20 mM Tris, pH7.4, 50 mM NaCl, 1 mM DTT, 0.1% BSA) were sequentially added to a 96-well Multiscreen HTS filtration plate (Millipore). The final 100 μL reaction mixture in each well contained 0.3 μg of CDK4/Cyclin D1 or CDK1/Cyclin B (Cell Signaling Technology), 1 μg of Rb fragment (aa773-928, Millipore) for the CDK4 assay or 5 μg of histone H1 for the CDK1 assay and 1 μCi of [^33P]-ATP. The mixture was incubated at room temperature for 1 hour. The proteins in the reaction were then precipitated and washed with cold TCA solution using an aspiration/filtration vacuum system. The plates were dried at room temperature, and the retained radioactivity was measured by scintillation counting.
(§1) IC50 values of the compounds in the above assays were determined by non-linear regression analysis using Prism (GraphPad Software).

[1] = molecular target: FLT3 enzyme (GST-FLT3 fusion) (Homo sapiens (Human), UniProt P36888); assay: FLT3 HTRF kinase assay; assay type: biochemical; conditions: 116 μM ATP
Protocol: The FLT3 inhibitory activity of the CDK4/6-FLT3 inhibitors was determined with a HTRF kinase assay. The FLT3 enzyme (GST-FLT3 fusion) was purchased from Carna Biosciences. An ULight-labeled synthetic peptide derived from human Janus kinase 1 (aa1015-1027, ULight-JAK1, PerkinElmer) was utilized as the phosphoacceptor substrate. The assay was conducted in a 384-well white OptiPlate (PerkinElmer). The 20 μL reaction mixture contained 50 nM ULight-JAK1, 116 μM ATP, 0.0385 ng/μL FLT3 and dilutions of test compounds in the kinase buffer (50 mM Hepes, pH 7.6, 1 mM EGTA, 10 mM MgCl2, 2 mM DTT, and 0.005% Tween 20). The reaction was allowed to proceed for 1 hour at room temperature and was stopped by adding 20 μL of 10 mM EDTA, 2 nM LANCE® Eu-W1024 anti-phospho-tyrosine antibody in LANCE® detection buffer (PerkinElmer). The plates were incubated at room temperature for 2 hours after addition of detection reagents and then read on an Envision multimode reader (PerkinElmer).
as §1

MOLM13 cells = assay: [14C]-thymidine incorporation cell proliferation assay, MOLM13; assay type: cell-based, human
Protocol: The cell proliferation inhibition potency of the CDK4/6-FLT3 inhibitors was determined by using a [^14C]-thymidine incorporation assay. Exponentially growing cells (MOLM-13, Colo-205, etc.) were seeded in a 96-well Cytostar T plate (GE Healthcare Biosciences) at a density of 5×10^3 cells/well and incubated overnight. Serially diluted compounds and 0.1 μCi of [^14C]-thymidine (GE Healthcare Biosciences) were added to each well on the following day. After 72 hour incubation, isotope incorporation was determined with a β plate counter (Wallac). MOLM13 is a human AML tumor cell line expressing FLT3, FLT3^ITD and wild type Rb.
as §1

[2] = Homo sapiens, MOLM-13, 72 hour incubation

Chain of FLT3 enzyme (GST-FLT3 fusion) (P36888 27-993): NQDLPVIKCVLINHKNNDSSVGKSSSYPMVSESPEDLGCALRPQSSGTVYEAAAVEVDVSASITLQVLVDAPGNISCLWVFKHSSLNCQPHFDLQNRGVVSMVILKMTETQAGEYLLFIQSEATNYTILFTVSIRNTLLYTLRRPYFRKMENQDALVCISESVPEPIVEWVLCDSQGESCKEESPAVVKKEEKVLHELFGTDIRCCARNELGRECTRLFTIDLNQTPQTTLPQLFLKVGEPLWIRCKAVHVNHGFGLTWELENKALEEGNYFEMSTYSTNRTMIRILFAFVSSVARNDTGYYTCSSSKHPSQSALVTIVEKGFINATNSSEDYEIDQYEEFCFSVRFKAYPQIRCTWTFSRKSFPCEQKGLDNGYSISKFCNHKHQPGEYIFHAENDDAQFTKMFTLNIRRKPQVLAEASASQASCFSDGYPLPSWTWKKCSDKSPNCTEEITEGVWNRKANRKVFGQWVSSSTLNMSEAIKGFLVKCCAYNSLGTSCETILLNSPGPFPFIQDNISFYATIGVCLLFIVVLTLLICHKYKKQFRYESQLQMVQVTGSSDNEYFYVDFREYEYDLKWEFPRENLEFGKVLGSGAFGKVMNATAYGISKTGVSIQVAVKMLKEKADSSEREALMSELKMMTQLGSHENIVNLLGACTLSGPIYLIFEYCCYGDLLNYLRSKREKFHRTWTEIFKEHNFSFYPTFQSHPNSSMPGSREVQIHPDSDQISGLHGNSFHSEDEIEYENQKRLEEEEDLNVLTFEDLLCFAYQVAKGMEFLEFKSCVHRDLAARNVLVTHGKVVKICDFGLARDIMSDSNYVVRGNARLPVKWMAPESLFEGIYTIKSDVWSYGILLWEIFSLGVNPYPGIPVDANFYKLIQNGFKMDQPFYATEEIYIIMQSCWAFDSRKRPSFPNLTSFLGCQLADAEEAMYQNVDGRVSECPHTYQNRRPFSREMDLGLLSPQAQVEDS
Chain of CDK4/Cyclin D1 (P11802 whole entry, the tested form may be a part): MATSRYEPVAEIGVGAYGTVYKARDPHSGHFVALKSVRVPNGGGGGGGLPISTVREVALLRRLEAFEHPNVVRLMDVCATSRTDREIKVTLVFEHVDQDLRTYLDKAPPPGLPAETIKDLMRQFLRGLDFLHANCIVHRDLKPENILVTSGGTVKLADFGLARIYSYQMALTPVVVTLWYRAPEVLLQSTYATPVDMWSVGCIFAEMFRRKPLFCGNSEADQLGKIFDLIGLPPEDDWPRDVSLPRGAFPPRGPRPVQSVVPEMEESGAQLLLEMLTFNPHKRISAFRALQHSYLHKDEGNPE
Chain of CDK4/Cyclin D1 (P24385 whole entry partner, the tested form may be a part): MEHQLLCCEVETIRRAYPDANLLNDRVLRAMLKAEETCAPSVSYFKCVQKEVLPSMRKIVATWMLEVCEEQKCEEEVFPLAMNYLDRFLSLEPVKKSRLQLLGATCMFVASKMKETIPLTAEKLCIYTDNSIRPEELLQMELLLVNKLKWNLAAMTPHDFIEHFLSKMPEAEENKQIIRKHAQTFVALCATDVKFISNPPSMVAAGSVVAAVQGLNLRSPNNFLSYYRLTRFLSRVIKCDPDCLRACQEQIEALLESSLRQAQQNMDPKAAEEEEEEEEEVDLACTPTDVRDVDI

Compound	IC50 (CDK4/Cyclin D1) [nM]	IC50 [1] [nM]	IC50 (MOLM13 cells; 72 hour incubation) [nM]	IC50 (MOLM13 cells; [2]) [nM]
CC(=O)N1Cc2ccc(Nc3ncc4c5ccncc5n([C@H]5CC[C@H](C)CC5)c4n3)nc2[C@@H](C)C1 (single isomer, unassigned) [Example 18b, 1-((R)-8-Methyl-2-((9-((1 r,4R)-4-methylcyclohexyl)-9H-pyrido[4′,3′:4,5]pyrrolo[2,3-d]pyrimidin-2-yl)amino)-7,8-dihydro-1,6-naphthyridin-6(5H)-yl)ethanone or 1-((S)-8-methyl-2-09-((1r,4S)-4-methylcyclohexyl)-9H-pyrido[4′,3′:4,5]pyrrolo[2,3-d]pyrimidin-2-yl)amino)-7,8-dihydro-1,6-naphthyridin-6(5H)-yl)ethanone]	463	2.3	20	–
C[C@H]1CC[C@H](n2c3cnccc3c3cnc(Nc4ccc5c(n4)CCN(CCO)C5)nc32)CC1 [Example 3, 2-(2-((9-((1r,4r)-4-Methylcyclohexyl)-9H-pyrido[4′,3′:4,5]pyrrolo[2,3-d]pyrimidin-2-yl)amino)-7,8-dihydro-1,6-naphthyridin-6(5H)-yl)ethanol]	2.6	1.8	–	14.8
C[C@H]1CC[C@H](n2c3cnccc3c3cnc(Nc4ccc5c(n4)CCN(CCC(F)(F)F)C5)nc32)CC1 [Example 7, 9-((1r,4r)-4-Methylcyclohexyl)-N-(6-(3,3,3-trifluoropropyl)-5,6,7,8-tetrahydro-1,6-naphthyridin-2-yl)-9H-pyrido[4′,3′:4,5]pyrrolo[2,3-d]pyrimidin-2-amine]	–	21.4	–	206
C[C@H]1CC[C@H](n2c3cnccc3c3cnc(Nc4cc5c(cn4)CNCC5)nc32)CC1 [Example 24, 9-((1r,4r)-4-Methylcyclohexyl)-N-(5,6,7,8-tetrahydro-2,7-naphthyridin-3-yl)-9H-pyrido[4′,3′:4,5]pyrrolo[2,3-d]pyrimidin-2-amine]	4.7	–	–	3.5
C[C@H]1CC[C@H](n2c3cnccc3c3cnc(Nc4ccc5c(n4)CN(C(=O)CO)CC5)nc32)CC1 [Example 30, 2-Hydroxy-1-(2-((9-((1r,4r)-4-methylcyclohexyl)-9H-pyrido[4′,3′:4,5]pyrrolo[2,3-d]pyrimidin-2-yl)amino)-5,6-dihydro-1,7-naphthyridin-7(8H)-yl)ethanone]	6.3	–	–	3
C[C@H](O)C(=O)N1CCc2nc(Nc3ncc4c5ccncc5n([C@H]5CC[C@H](C)CC5)c4n3)ccc2C1 [Example 32, (S)-2-Hydroxy-1-(2-((9-((1r,4r)-4-methylcyclohexyl)-9H-pyrido[4′,3′:4,5]pyrrolo[2,3-d]pyrimidin-2-yl)amino)-7,8-dihydro-1,6-naphthyridin-6(5H)-yl)propan-1-one]	12	–	–	1.8
CN(C)CC(=O)N1CCc2nc(Nc3ncc4c5ccncc5n([C@H]5CC[C@H](C)CC5)c4n3)ccc2C1 [Example 34, 2-(Dimethylamino)-1-(2-((9-((1r,4r)-4-methylcyclohexyl)-9H-pyrido[4′,3′:4,5]pyrrolo[2,3-d]pyrimidin-2-yl)amino)-7,8-dihydro-1,6-naphthyridin-6(5H)-yl)ethanone]	3	–	–	0.3

Results, then the compound that gave them:

IC50 (CDK4/Cyclin D1) [nM]	IC50 [1] [nM]	IC50 (MOLM13 cells; 72 hour incubation) [nM]	IC50 (MOLM13 cells; [2]) [nM]	Compound
18.8	1.6	24.2	–	CC(=O)N1Cc2ccc(Nc3ncc4c5ccncc5n([C@H]5CC[C@H](C)CC5)c4n3)nc2[C@H](C)C1 (single isomer, unassigned) [Example 18a, 1((R)-8-Methyl-2-((9-((1r,4R)-4-methylcyclohexyl)-9H-pyrido[4′,3′:4,5]pyrrolo[2,3-d]pyrimidin-2-yl)amino)-7,8-dihydro-1,6-naphthyridin-6(5H)-yl)ethanone or 1((S)-8-methyl-2-((9-((1r,4S)-4-methylcyclohexyl)-9H-pyrido[4′,3′:4,5]pyrrolo[2,3-d]pyrimidin-2-yl)amino)-7,8-dihydro-1,6-naphthyridin-6(5H)-yl)ethanone]
2.1	1.3	–	15.2	C[C@H]1CC[C@H](n2c3cnccc3c3cnc(Nc4ccc5c(n4)CCNC5)nc32)CC1 [Example 1, 9-((1r,4r)-4-Methylcyclohexyl)-N-(5,6,7,8-tetrahydro-1,6-naphthyridin-2-yl)-9H-pyrido[4′,3′:4,5]pyrrolo[2,3-d]pyrimidin-2-amine]
4.5	3.2	–	22.5	CC(=O)N1CCc2nc(Nc3ncc4c5ccncc5n([C@H]5CC[C@H](C)CC5)c4n3)ccc2C1 [Example 2, 1-(2-((9-((1r,4r)-4-Methylcyclohexyl)-9H-pyrido[4′,3′:4,5]pyrrolo[2,3-d]pyrimidin-2-yl)amino)-7,8-dihydro-1,6-naphthyridin-6(5H)-yl)ethanone]
–	–	–	21.9	C[C@H]1CC[C@H](n2c3cnccc3c3cnc(Nc4ccc5c(n4)C(O)CN(CCO)C5)nc32)CC1 (stereo partly shown) [Example 17, 6-(2-Hydroxyethyl)-2-((9-((1r,4r)-4-methylcyclohexyl)-9H-pyrido[4′,3′:4,5]pyrrolo[2,3-d]pyrimidin-2-yl)amino)-5,6,7,8-tetrahydro-1,6-naphthyridin-8-ol]
8.6	–	–	1.5	C[C@H]1CC[C@H](n2c3cnccc3c3cnc(Nc4ccc5c(n4)CNCC5)nc32)CC1 [Example 23, 9-((1r,4r)-4-Methylcyclohexyl)-N-(5,6,7,8-tetrahydro-1,7-naphthyridin-2-yl)-9H-pyrido[4′,3′:4,5]pyrrolo[2,3-d]pyrimidin-2-amine]
35	–	–	6.7	C[C@H]1CC[C@H](n2c3cnccc3c3cnc(Nc4cc5c(cn4)CN(C(=O)CO)CC5)nc32)CC1 [Example 31, 2-Hydroxy-1-(6-((9-((1r,4r)-4-methylcyclohexyl)-9H-pyrido[4′,3′:4,5]pyrrolo[2,3-d]pyrimidin-2-yl)amino)-3,4-dihydro-2,7-naphthyridin-2(1H)-yl)ethanone]
41	–	–	3.1	C[C@@H](O)C(=O)N1CCc2nc(Nc3ncc4c5ccncc5n([C@H]5CC[C@H](C)CC5)c4n3)ccc2C1 [Example 33, (R)-2-hydroxy-1-(2-((9-((1r,4r)-4-methylcyclohexyl)-9H-pyrido[4′,3′:4,5]pyrrolo[2,3-d]pyrimidin-2-yl)amino)-7,8-dihydro-1,6-naphthyridin-6(5H)-yl)propan-1-one]
26	–	–	480	CC(C)(C)OC(=O)N1CCc2ccc(Nc3ncc4c5ccncc5n([C@H]5CC[C@H](C)CC5)c4n3)nc2C1 [Example 35, tert-Butyl 2-((9-((1r,4r)-4-methylcyclohexyl)-9H-pyrido[4′,3′:4,5]pyrrolo[2,3-d]pyrimidin-2-yl)amino)-5,6-dihydro-1,7-naphthyridine-7(8H)-carboxylate]
350	–	–	–	CC(C)(C)OC(=O)N1CCc2cc(Nc3ncc4c5ccncc5n([C@H]5CC[C@H](C)CC5)c4n3)ncc2C1 [Example 36, tert-Butyl 6-((9-((1r,4r)-4-methylcyclohexyl)-9H-pyrido[4′,3′:4,5]pyrrolo[2,3-d]pyrimidin-2-yl)amino)-3,4-dihydro-2,7-naphthyridine-2(1H)-carboxylate]
3	–	–	1.4	CCN(CC)CC(=O)N1CCc2nc(Nc3ncc4c5ccncc5n([C@H]5CC[C@H](C)CC5)c4n3)ccc2C1 [Example 37, 2-(Diethylamino)-1-(2-((9-((1r,4r)-4-methylcyclohexyl)-9H-pyrido[4′,3′:4,5]pyrrolo[2,3-d]pyrimidin-2-yl)amino)-7,8-dihydro-1,6-naphthyridin-6(5H)-yl)ethanone]
